How the values were obtained:
Format in all cases: physicochemical
[1] = Association of doxorubicin with porous particles; conditions: 5 mg doxorubicin hydrochloride, 5 mg SEPHADEX® C25, 2 h at 4° C.
Experimental: The overall procedure was as in example 7, but incorporating doxorubicin (C27H29NO11,PM543, 53) in place of haemoglobin, 5 mg of doxorubicin hydrochloride being dissolved in 1 ml of distilled water and incubated with 5 mg of porous particles (SEPHADEX® C25) substituted with carboxymethyl groups. The pore size of the particles was such that molecules with a maximum molecular weight of 25000 could penetrate. The suspension was stirred for 2 h at 4° C. with a planetary stirrer. It was then decanted and the free doxorubicin concentration was measured by UV spectrophotometry at 480 nm. […] The non-absorbed doxorubicin fraction was removed by decanting and washing the cake with distilled water.

[2] = Association of doxorubicin with small-size porous particles; conditions: 5 mg doxorubicin, 5 mg small-size porous particles, 2 h
Experimental: The procedure was as in example 10, but an attempt was made to prepare smaller sized porous particles. 1 g of SEPHADEX® C25 porous matrix was dispersed in 100 ml of distilled water and the preparation was ground for 15 min with a helical mill. The preparation was then centrifuged at 3000 g for 10 min and the supernatant was recovered and then subjected to further centrifuging at 25000 g for 45 min. The supernatant was removed, the cake was put back into suspension and 50 mg of a dry product were obtained following freeze-drying. The size of the particles obtained, measured by a particle analyzer, was between 300 and 500 nm.
5 mg of these small-size porous particles were dispersed in 5 ml of distilled water. 5 mg of doxorubicin were added and the whole was stirred for 2 h. The concentration of doxorubicin not associated with the particles was determined by ultrafiltration of an aliquot of the suspension through an ultrafiltration membrane of which the separation threshold was 50000, and the concentration of free doxorubicin was measured by UV spectrometry at 480 nm. […] These were then used as they were without supplementary purification.

[3] = Absorption of haemoglobin on the porous substrate; conditions: 20 mg haemoglobin, 5 mg SEPHADEX® SPC50, pH 6.5, 24 h at 4° C.
Experimental: 5 mg of porous particles (SEPHADEX® SPC50) with a diameter of 150 μm substituted with sulfopropyl groups and having a pore size sufficient to allow the penetration of molecules with a maximum molecular weight of 250000, were dispersed in 5 ml of a 10 mM bi-tri buffer, of pH 6.5 (where the haemoglobin is cationic and is attracted inside the anionic sites of the porous particles). 20 mg of haemoglobin, extracted from human erythrocytes by the lysis method in a hypotonic medium, were then added to this dispersion. The preparation was stirred for 24 h at 4° C. on a planetary stirrer. The particles were then decanted and the quantity present in the supernatant was determined by UV spectrometry at 410 nm. […] The non-absorbed haemoglobin was removed by decanting the particles and washing them with a 10 mM bi-tri buffer.

| Compound | doxorubicin associated with the particles [1] | doxorubicin associated with the particles [2] | haemoglobin present inside the particles [3] |
| --- | --- | --- | --- |
| COc1cccc2c1C(=O)c1c(O)c3c(c(O)c1C2=O)C[C@@](O)(C(=O)CO)C[C@@H]3O[C@H]1C[C@H](N)[C@H](O)[C@H](C)O1 [doxorubicin] | more than 97% | more than 98% | – |
| haemoglobin: haemoglobin extracted from human erythrocytes by the lysis method in a hypotonic medium | – | – | more than 98% |
